Data published in patent US11925653B2, “Combination therapy effective against microorganisms, including drug resistant microorganisms” (Fleurir ABX LLC, priority 2021, dated 2024).
Marks after values point to notes of the source that are not given here.

System: K. pneumoniae
Test: MIC and synergy checkerboard assay, broth microdilution
Assay type: cell-based
Procedure: The described novel combination was tested against both reference, and clinically resistant strains of S. aureus, E, coli, K. pneumoniae, and P. aeruginosa. Reference and clinical isolates were obtained from the American Type Culture Collection (ATCC, Manasas, VA.) and International Health Management Associates, Inc. (Schaumberg, IL). Bacteria were cultured in trypticase soy broth, concentrated 10-fold by centrifugation, and cryopreserved in the same medium containing 20% glycerol by holding at −80° C. Every two weeks a small amount of frozen culture was removed aseptically, and streaked on fresh trypticase soy agar plates to act as a working inoculum. Following overnight growth at about 37° C., the plates were wrapped in parafilm, and held at about 4° C. Bacteria (4-5 colonies) were then aseptically transferred into broth growth medium for assays as needed.
Minimum inhibitory concentration (MIC) assays were performed in a manner as described for the CLSI Agar dilution or broth microdilution assay guideline (see, Clinical Laboratory Standards Institute, 2009, Methods for Dilution Antimicrobial Susceptibility Tests for Bacteria That Grow Aerobically; Approved Standard, Eighth Edition, M07-A8, Vol. 29, No. 2). For example, known antibiotics or the compositions described herein were dissolved, serially diluted, and then added to tempered molten Mueller-Hinton Agar before pouring of plates; or were dissolved, and then serially diluted in 100 μL cation-adjusted Mueller-Hinton broth across the assay plate in the classical 2-fold geometric format. D-glucose-6-phosphate was included as a medium supplement in both agar, and broth at a concentration of 50 mg/L. Antibiotic concentrations for agar assay were at the final concentration. Antibiotic concentrations for broth microdilution in each well at this point were double what the final assay concentration would be. Bacterial inocula were prepared by swabbing several colonies from a fresh agar plate, and re-suspending the bacteria to a density that was the 0.5 McFarland turbidity standard, considered close or equivalent to 1×10^8 CFU/mL. For agar dilution, a steers replicator was utilized to deliver 1×10^4 CFU/spot. For broth microdilution, the bacterial inocula were diluted in the cation-adjusted Mueller-Hinton broth to 1×10^6 CFU/mL, and 100 μL was overlayered onto the wells containing a diluted antibiotic or a composition described. Following incubation as per the guideline, results were recorded as growth or no growth, and the lowest concentration of the antibiotic or the composition described where no growth was observed was declared the MIC.
To assay for synergy of antibacterial combinations, a recognized synergy checkerboard assay, adapted from the CLSI guideline microdilution assay, was utilized (see Eliopoulos, G. M., and Moellering, R. C, Jr., 1996. Antimicrobial Combinations, pg. 330-396. In: Lorian, V. (Ed.), Antibiotics in Laboratory Medicine, 4th Ed., Williams & Wilkins; Baltimore, MD). In the case of the agar dilution method, each antibiotic alone, or in combination was added to agar prior to plate pouring. For broth microdilution, the first compound (or antibiotic or agent) was diluted in cation-adjusted Mueller-Hinton broth across the plate along the horizontal axis with each well in a row containing 50 μL of an identical concentration of compound (or antibiotic). Along the vertical axis a dilution series of the second compound (or antibiotic) was dispensed. At this point the drug concentrations are four-fold of the final desired working concentration. […] Following incubation, wells with no growth are noted. […] FIC=(MIC-A combination/MIC-A alone)+(MIC-B combination/MIC-B alone).
In the above, FIC: Synergy=FIC<0.5; Additive=FIC>0.5-1; Indifferent=FIC>1-2; Antagonism=FIC>2-4.

C[C@@H]1O[C@@H]1P(=O)(O)O [Fosfomycin, cis-1,2-epoxypropyl phosphonic acid]
MIC (Combo as F/DP/SM; second compound as DP/SM) (K. pneumoniae 848788): >64* μg/ml | MIC (Combo as F/DP/SM; second compound as DP/SM) (K. pneumoniae 857147): 16 µg/mL | MIC (Combo as F/DP/SM; second compound as DP/SM) (K. pneumoniae 857187): 64 µg/mL | MIC (Combo as F/DP/SM; second compound as DP/SM) (K. pneumoniae 868968): >64* μg/ml | MIC (Combo as F/DP/SM; second compound as DP/SM) (K. pneumoniae 868972): 64 µg/mL | MIC (Combo as F/DP/SM; second compound as DP/SM) (K. pneumoniae 869028): >64* μg/ml | MIC (Combo as F/DP/SM; second compound as DP/SM) (K. pneumoniae 875638): 32 µg/mL | MIC (Combo as F/DP/SM; second compound as DP/SM) (K. pneumoniae 892483): >64* μg/ml | MIC (Combo as F/DP/SM; second compound as DP/SM) (K. pneumoniae 926439): 64 µg/mL
